Source: ChEMBL document CHEMBL1770093, “Potent antiprotozoal activity of a novel semi-synthetic berberine derivative” (Bioorg Med Chem Lett, 2011)
Where a name gives a salt, the structure may show the parent alone.

How the values were obtained:
Leishmania amazonensis [1] = test: Antileishmanial activity against Leishmania amazonensis infected in mouse visceral leishmaniasis model assessed as decrease in parasitemia level in liver at 10 mg/kg/day, ip administered 5 times; assay type: functional; design: scale not given: the % may be the effect or the level left; conditions: route intraperitoneal
Leishmania amazonensis [2] = test: Antileishmanial activity against intracellular Leishmania amazonensis infected in mouse peritoneal macrophages; assay type: functional, organism-based
[3] = system: Trypanosoma brucei brucei; test: Antitrypanosomal activity against bloodstream form of Trypanosoma brucei brucei; assay type: functional, organism-based
Plasmodium falciparum = test: Antimalarial activity against Plasmodium falciparum by flow cytometry; assay type: functional, organism-based
Vero = test: Cytotoxicity against african green monkey Vero cells; assay type: cell-based; conditions: Chlorocebus sabaeus
Leishmania amazonensis [4] = test: Antileishmanial activity against Leishmania amazonensis infected in mouse visceral leishmaniasis model assessed as decrease in parasitemia level in liver at 1 mg/kg/day, ip administered 5 times; assay type: functional; design: scale not given: the % may be the effect or the level left; conditions: route intraperitoneal
[5] = Selectivity index, ratio of IC50 for african green monkey Vero cells to IC50 for bloodstream form of Trypanosoma brucei brucei; assay type: toxicity, cell-based; conditions: read-out: Ratio IC50
Mus musculus = test: Toxicity in Leishmania amazonensis infected mouse visceral leishmaniasis model at > 1 mg/kg/day, ip; assay type: organism-based; design: route intraperitoneal; conditions: in vivo

Row | IC50 (Leishmania amazonensis [2]) | IC50 [3] | IC50 (Plasmodium falciparum) | Structure (SMILES) | also measured
1 |  |  |  | CCCCCCCCCCCCCCCCOP(=O)([O-])OCC[N+](C)(C)C [MILTEFOSINE] | Activity (Leishmania amazonensis [1]): 98%
2 | 17000 nM | 1100 nM | 800 nM | COc1ccc2cc3[n+](cc2c1OC)CCc1cc2c(cc1-3)OCO2 [BERBERINE SULFATE] | 
3 |  | 250 nM |  | Cc1ccc(C(=O)Nc2ccc(S(=O)(=O)O)c3cc(S(=O)(=O)O)cc(S(=O)(=O)O)c23)cc1NC(=O)c1cccc(NC(=O)Nc2cccc(C(=O)Nc3cc(C(=O)Nc4ccc(S(=O)(=O)O)c5cc(S(=O)(=O)O)cc(S(=O)(=O)O)c45)ccc3C)c2)c1 [SURAMIN] | 
4 | 120 nM |  |  | C[C@@H]1[C@H](O)[C@@H](C)/C=C/C=C/C=C/C=C/C=C/C=C/C=C/[C@H](O[C@@H]2O[C@H](C)[C@@H](O)[C@H](N)[C@@H]2O)C[C@@H]2O[C@](O)(C[C@@H](O)C[C@@H](O)[C@H](O)CC[C@@H](O)C[C@@H](O)CC(=O)O[C@H]1C)C[C@H](O)[C@H]2C(=O)O [AMPHOTERICIN B] | 
5 | 180 nM | 9.1 nM | 36 nM | CCC1(CC)c2c(ccc(OC)c2OC)C(=O)c2c3cc4c(cc3cc[n+]21)OCO4.[Cl-] | IC50 (Vero): 91000 nM; Activity (Leishmania amazonensis [4]): 47%; selectivity ratio [5]: 10000; Activity (Mus musculus): Toxic
